Test results from patent US20220267271A1, “WNT ACTIVATORS AND METHODS OF USE” (MAYO FOUNDATION FOR MEDICAL EDUCATION AND RESEARCH, priority 2019, published 2022).

Experiments:
LRP6 [1] = assay: Wnt reporter assay in HEK293 cells after LRP6 siRNA knockdown; assay type: cell-based, human; conditions: CI-994 16 μM, 1011, 1015, 1023 1 μM, 24 h
Method: (A) structures of niciosamide and CI-994; (B) HEK293 cells were transfected with Super8XTOPFlash and β galactosidase vectors along with Wnt3A or control vector. After 24 hours incubation, cells were treated with CI-994 at the indicated concentration for 24 hr. The luciferase activity was then measured and normalized to the activity of the β-galactosidase. (C) HT1080 cells stably transduced LRP6 with HA tag were treated with niciosamide and CI-994 at the indicated concentrations for 24 h. The levels of HA-LRP6 were examined by Western blot with anti-HA antibody. (D) Western blots showing the depletion of LRP6 after 2 days of transiently transfection of 50 nM LRP6 siRNA in HEK293 cells. ON-TARGETplus double-stranded siRNA oligomers against human LRP6 and non-specific scrambled siRNA control (Stealth RNAi™ siRNA Negative Control, Med GC) were purchased from Thermo Scientific. siRNA LRP6-1, siRNA LRP6-2 and control siRNA were Thermo Scientific catalog numbers J-003845-09, J-003845-11 and 12935300, respectively. (E) HEK293 cells were transfected with LRP6 siRNAs, and after 8 h incubation were further transfected with Super8XTOPFlash construct and β galactosidase-expressing vector. After 24 h incubation, the cells were treated with CI-994 (16 μM) for 24 h. The luciferase activity was then measured and normalized to β-galactosidase activity. All the values are the average of triplicate determinations with the SD values indicated by error bars. **P<0.01 versus corresponding control value.
(§1) (A) HT1080 cells stably transduced with human LRP6 with HA tag were treated with niciosamide (1 μM) and other compounds as noted (1 μM) for 24 hr. The levels of HA-LRP6 were examined by Western blots with anti-HA antibody. All samples were also probed with anti-actin antibody to verify equal loading. This experiment is a representative of two such experiments performed with similar data. (B) N2a cells were treated with 1015 and 1011 at the indicated concentrations for 24 h. The expression levels of LRP6, β-catenin and actin were examined by Western blotting. This experiment is a representative of three such experiments performed with similar data. (C) HEK293 cells were transfected with LRP6 siRNAs, and after 8 h incubation were further transfected with Super8XTOPFlash construct and β galactosidase-expressing vector. ON-TARGETplus double-stranded siRNA oligomers against human LRP6 and non-specific scrambled siRNA control (Stealth RNAi™ siRNA Negative Control, Med GC) were purchased from Thermo Scientific. siRNA LRP6-1, siRNA LRP6-2 and control siRNA were Thermo Scientific catalog numbers J-003845-09, J-003845-11 and 12935300, respectively. […] The luciferase activity was then measured and normalized to β-galactosidase activity. […]

S. typhimurium TA1537 = assay: Ames test, bacterial reverse mutation assay, TA1537; set-up: species or system Salmonella typhimuium; conditions: 1011 and 1015 at 400 μM, mean ± SD, n = 3
Method: (§2) Ames test: According to the OECD Guidelines For Testing Of Chemicals, experiments with the tested agents, positive and negative controls, were conducted in triplicates on 6 tester strains, S. typhimurium: TA98, TA100, TA1535, TA1537 and E. coli: wp2[pKM101]+wp2 uvrA mixed 1:2. Dimethyl sulfoxide (DMSO) was used as the vehicle control for all tester strains in mutagenicity assay with and without metabolic activation. Compounds with known mutagenic activity were used as the positive controls in mutagenicity assay without metabolic activation: 2-nitrofluorene (0.1 μg/plate) for TA98, 4-nitroquinoline N-oxide (0.1 μg/plate) for TA100, sodium azide (0.2 μg/plate) for TA1535, 9-aminoacridine (7.5 μg/plate) for TA1537, and 4-nitroquinoline N-oxide (0.1 μg/plate) for E. coli. 2-Aminoantracene in final concentration 0.4 μg/ml was used as the positive control (the solution of 2-aminoantracene in DMSO was prepared immediately before experiment) in test with metabolic activation. For each experiment tester strain cultures were grown overnight in Oxoid nutrient broth #2 at 37° C. with shaking at 235 rpm to a density of 1-2×10^9 colony forming units/ml (OD600˜1.5). The S9 mix, which is consist of 9000 g supernatant fraction of rat liver homogenate (S9 fraction), was prepared immediately prior to its use in experimental procedure.
(§3) The tester strain (10 μl of overnight culture) was mixed with the test agent (10 μl of the DMSO stock) and GM liquid medium (30 μl) or S9 mix (30 μl). Then, 200 μl of molten top agar supplemented with histidine/biotin (final concentration 0.05 mM) for S. typhimurium and tryptophan (final concentration 0.025 mM) for E. coli were added to the tube (top agar was kept at 44° C. to prevent hardening). The mixed suspension was poured onto the surface of a GM agar plate (2.0 ml of GM agar per plate). After the top agar solidified, the plates were inverted and incubated at 37° C. for 48 hours. The results were expressed as number of revertant colonies per plate. The final concentrations of the test compounds in the mutagenicity assay with all tester strains in both the presence and absence of S9 mix were 400 μM. All concentrations were tested in triplicates.

S. typhimurium TA98 = assay: Ames test, bacterial reverse mutation assay, TA98; set-up: species or system Salmonella typhimuium; conditions: 1011 and 1015 at 400 μM, mean ± SD, n = 3
Method: as §2, §3

LRP6 [2] = assay: Endogenous LRP6 expression in N2a cells by Western blotting; assay type: cell-based; conditions: 0.8 and 1.6 μM, 24 h
Method: as §1, with “vector.” for “vector. ON-TARGETplus double-stranded siRNA oligomers against human LRP6 and non-specific scrambled siRNA control (Stealth RNAi™ siRNA Negative Control, Med GC) were purchased from Thermo Scientific. siRNA LRP6-1, siRNA LRP6-2 and control siRNA were Thermo Scientific catalog numbers J-003845-09, J-003845-11 and 12935300, respectively.”
Western blotting: Cells in 6-well plates were lysed in 0.5 ml of lysis buffer (phosphate-buffered saline containing 1% Triton X-100, 1× Proteinase inhibitor cocktail Complete, and 1 mM PMSF) at 4° C. for 15 min. Equal quantities of protein were subjected to SDS-PAGE under reducing conditions. […] The immunoreactive proteins were then detected using the ECL system or the Odyssey infrared imaging system (LI-COR). […]

S. typhimurium TA100 = assay: Ames test, bacterial reverse mutation assay, TA100; set-up: species or system Salmonella typhimuium; conditions: 1011 and 1015 at 400 μM, mean ± SD, n = 3
Method: as §2, §3

[3] = with metabolic activation (S9 mix)

SMILES: CC(=O)Nc1ccc(C(=O)Nc2ccccc2N)cc1 [CI-994, 4-(acetylamino)-N-(2-aminophenyl)benzamide, reference compound]
- effect of knockdown of LRP6 expression on the compound's effect on Wnt/β-catenin signaling (LRP6 [1]): significantly attenuated

SMILES: CC1CCCC(C)N1CCNC(=O)c1ccc(C(=O)Nc2ccccc2N)nc1 (centres unmarked) [Compound 1011]
- Number of revertant colonies per plate, TA1537 (S. typhimurium TA1537; [3]): 0.0 ± 0.0 revertant colonies per plate
- Number of revertant colonies per plate, TA1537 (S. typhimurium TA1537; without metabolic activation): 0.7 ± 0.6 revertant colonies per plate
- effect of knockdown of LRP6 expression on the compound's effect on Wnt/β-catenin signaling (LRP6 [1]): significantly attenuated
- Number of revertant colonies per plate, TA 98 (S. typhimurium TA98; [3]): 1.7 ± 2.1 revertant colonies per plate
- Number of revertant colonies per plate, TA 98 (S. typhimurium TA98; without metabolic activation): 1.7 ± 1.5 revertant colonies per plate
- endogenous LRP6 expression (LRP6 [2]): significantly enhanced
- Number of revertant colonies per plate, TA100 (S. typhimurium TA100; [3]): 4.7 ± 2.1 revertant colonies per plate
- Number of revertant colonies per plate, TA100 (S. typhimurium TA100; without metabolic activation): 4.3 ± 3.5 revertant colonies per plate

SMILES: Nc1ccccc1NC(=O)c1ccc(C(=O)NCC2CCN2C2CCCC2)cn1 (centres unmarked) [Compound 1015]
- Number of revertant colonies per plate, TA1537 (S. typhimurium TA1537; [3]): 0.0 ± 0.0 revertant colonies per plate
- Number of revertant colonies per plate, TA1537 (S. typhimurium TA1537; without metabolic activation): 0.0 ± 0.0 revertant colonies per plate
- effect of knockdown of LRP6 expression on the compound's effect on Wnt/β-catenin signaling (LRP6 [1]): significantly attenuated
- Number of revertant colonies per plate, TA 98 (S. typhimurium TA98; [3]): 0.7 ± 1.2 revertant colonies per plate
- Number of revertant colonies per plate, TA 98 (S. typhimurium TA98; without metabolic activation): 1.3 ± 1.5 revertant colonies per plate
- endogenous LRP6 expression (LRP6 [2]): significantly enhanced
- Number of revertant colonies per plate, TA100 (S. typhimurium TA100; [3]): 2.0 ± 1.0 revertant colonies per plate
- Number of revertant colonies per plate, TA100 (S. typhimurium TA100; without metabolic activation): 1.33 ± 0.6 revertant colonies per plate
